Results: patent US8426447B2, “Spiro-tricyclic ring compounds as beta-secretase modulators and methods of use” (Amgen Inc., priority 2008, dated 2013)

Legend:
[1] = molecular target: T1, BACE1 (Homo sapiens, UniProt P56817); test: In Vitro Enzymatic BACE FRET (Fluorescence Resonance Energy Transfer) Assay; assay type: biochemical; settings: read-out: BACE1 FRET assay
Method in brief: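 Buffer 0.05 M acetate pH 4.2 with 10% DMSO final and 100 uM genapol; reaction started with 50 nM FRET peptide substrate (fluorophore/quencher flanking BACE cleavage site), incubated one hour. Stopped with Tris buffer raising pH to neutrality, then fluorescence read.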

[2] = molecular target: T1, BACE1; test: In Vitro BACE Cell-based Assay (HEK cell assay): Aβ40 in conditioned medium of cells stably expressing Amyloid Precursor Protein, sandwich ELISA; settings: read-out: HEK cell assay
Protocol: In Vitro BACE Cell-based Assay
The cell-based assay measures inhibition or reduction of Aβ40 in conditioned medium of test compound treated cells expressing amyloid precursor protein.
Cells stably expressing Amyloid Precursor Protein (APP) were plated at a density of 40K cells/well in 96 well plates (Costar). The cells were cultivated for 24 hours at 37° C. and 5% CO2 in DMEM supplemented with 10% FBS. The test compounds were then added to cells in 10-point dose response concentrations with the starting concentration being either 100 μM or 10 μM. The compounds were diluted from stock solutions in DMSO and the final DMSO concentration of the test compounds on cells was 0.1%. After 24 h of incubation with the test compounds the supernatant conditioned media was collected and the Aβ 40 levels were determined using a sandwich ELISA. The IC50 of the compound was calculated from the percent of control or percent inhibition of Aβ 40 as a function of the concentration of the test compound.
The sandwich ELISA to detect Aβ 40 was performed in 96 well microtiter plates, which were pre-treated with goat anti-rabbit IgG (Pierce). The capture and detecting antibody pair that were used to detect Aβ 40 from cell supernatants were affinity purified pAb40 (Biosource) and biotinylated 6E10 (Signet Labs Inc.), respectively. The optimal concentration for the pAb40 antibody was 3 μg/ml in Superblock/TBS (Pierce) that was supplemented with 0.05% Tween 20 (Sigma).
Cellular supernatants were incubated with the capture antibody for 3 h at 4° C., followed by 3 wash steps in TBS-tween (0.05%). The detecting antibody incubation was for 2 h at 4° C., again followed by the wash steps as described previously. The final readout of the ELISA is Time-Resolved Fluorescence (counts per minute) using Delfia reagents Streptavidin-Europium and Enhancement solutions (Perkin Elmer) and the Victor 2 multilabel counter (Perkin Elmer).

[3] = Table II, Aβ40, 24 h incubation
[4] = in vitro BACE FRET enzyme assay, IC50 class symbols
[5] = HEK cell-based assay, Aβ40 in conditioned medium, IC50 class symbols

T1 sequence (P56817 46-501, species assumed): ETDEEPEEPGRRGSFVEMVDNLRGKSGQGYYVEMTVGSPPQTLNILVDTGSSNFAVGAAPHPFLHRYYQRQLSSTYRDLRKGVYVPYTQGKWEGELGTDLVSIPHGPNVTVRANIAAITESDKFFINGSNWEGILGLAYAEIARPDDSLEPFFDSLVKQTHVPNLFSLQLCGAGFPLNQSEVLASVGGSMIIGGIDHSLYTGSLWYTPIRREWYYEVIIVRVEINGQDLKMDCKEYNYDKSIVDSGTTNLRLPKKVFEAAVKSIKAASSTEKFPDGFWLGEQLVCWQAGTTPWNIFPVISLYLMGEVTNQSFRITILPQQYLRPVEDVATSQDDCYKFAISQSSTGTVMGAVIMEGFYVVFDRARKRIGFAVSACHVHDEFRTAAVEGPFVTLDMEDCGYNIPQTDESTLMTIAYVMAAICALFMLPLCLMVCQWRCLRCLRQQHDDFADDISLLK

SMILES	IC50 ([1]; Table IV, class symbols)	IC50 ([2]; Table IV, class symbols)	IC50 [1]	IC50 [2]	other results
CC(C)(C)C#Cc1cnc2c(c1)[C@@]1(COC(N)=N1)c1cc(-c3cncnc3)cc(F)c1O2 [compound 538]	0.1 to 1 µM	0.1 to 1 µM	–	–	–
COc1ccc2c(c1)[C@@]1(COC(N)=N1)c1c(ccc(-c3cncnc3)c1F)O2 [compound 816]	> 5 µM	> 5 µM	–	–	–
COC(C)(C)C#Cc1ccc2c(c1)C1(COC(N)=N1)c1cc(C#CC(C)(C)OC)ccc1O2 [Example 119, 2′,7′-bis(3-methoxy-3-methylbut-1-ynyl)-5H-spiro[oxazole-4,9′-xanthen]-2-amine]	–	–	–	–	IC50 ([1]; Table III, IC50's in uM ranges): 0.1 to 1 µM; IC50 ([2]; Table III, IC50's in uM ranges): 0.1 to 1 µM
CC(C)(C)C#Cc1ccc2c(c1)[C@]1(COC(N)=N1)c1cc(C3=CCOCC3)ncc1O2 [compound 800]	0.1 to 1 µM	1 to 5 µM	–	–	–
COc1ccc(-c2ccc3c(c2)[C@@]2(COC(N)=N2)c2cc(C#CC(C)(C)OC)cnc2O3)cn1 [compound 767]	–	–	0.1 to 1 µM	0.1 to 1 µM	–
NC1=N[C@]2(CO1)c1cc(C3=CCNCC3)ccc1Oc1ccc(-c3cncnc3)cc12 [compound 964]	–	–	< 0.1 µM	< 0.1 µM	–
CC(C)(C)COc1ccc2c(c1)[C@@]1(COC(N)=N1)c1cc(-c3ccc(C#N)nc3)ccc1O2 [compound 782]	–	–	< 0.1 µM	0.1 to 1 µM	–
NC1=N[C@@]2(CO1)c1cc(-c3cccnc3)ccc1Oc1ccc(-c3ccsc3)cc12 [compound 672]	–	–	< 0.1 µM	< 0.1 µM	–
COc1ccc2c(c1)C1(COC(N)=N1)c1cc(-c3ccc(OC(F)(F)F)cc3)ccc1O2 (stereo not shown) [Example 27, 2′-methoxy-7′-(4-(trifluoromethoxy)phenyl)spiro[1,3-oxazole-4,9′-xanthen]-2-amine]	–	–	–	–	IC50 ([1]; Table 1): > 5 µM; IC50 ([2]; Table 1, Aβ40, 24 h incubation): 1 to 5 µM
CCc1cc2c3c(ccc2o1)Oc1ncc(-c2cncnc2)cc1[C@]31COC(N)=N1 [compound 769]	–	–	0.1 to 1 µM	1 to 5 µM	–
CC(C)(C)C#Cc1ccc2c(c1)[C@]1(COC(N)=N1)c1cc(-c3cccnc3)ncc1O2 [compound 824]	< 0.1 µM	0.1 to 1 µM	–	–	–
CCCOc1cc2c(cc1F)Oc1ccc(-c3cccnc3)cc1[C@]21COC(N)=N1 [compound 939]	–	–	0.1 to 1 µM	0.1 to 1 µM	–
CN(C)C(=O)c1ccc2c(c1)[C@]1(COC(N)=N1)c1cc(OCC(C)(C)C)ccc1O2 [compound 799]	0.1 to 1 µM	0.1 to 1 µM	–	–	–
Cc1ccc2c(c1)Oc1ccc(-c3cccc(OC(F)(F)F)c3)cc1[C@]21COC(N)=N1 [Example 24, (4S)-6′-methyl-2′-(3-(trifluoromethoxy)phenyl)spiro[1,3-oxazole-4,9′-xanthen]-2-amine]	–	–	–	–	IC50 ([1]; Table 1): > 5 µM; IC50 ([2]; Table 1, Aβ40, 24 h incubation): 1 to 5 µM
NC1=N[C@]2(CO1)c1cc(-c3ccc(F)cc3)ccc1Oc1ncc(C3=CCOCC3)cc12 [compound 691]	–	–	1 to 5 µM	1 to 5 µM	–
CC1(C#Cc2cnc3c(c2)[C@]2(COC(N)=N2)c2cc(-c4cc(F)ccc4F)ccc2O3)COC1 [compound 519]	–	–	< 0.1 µM	–	IC50 ([2]; HEK cells): < 0.1 µM
NC1=N[C@]2(CO1)c1cc(-c3ccccc3)ccc1Oc1ncccc12 [compound 598]	1 to 5 µM	> 5 µM	–	–	–
NC1=N[C@]2(CO1)c1ccccc1Oc1ncc(-c3cncnc3)cc12 [compound 661]	0.1 to 1 µM	0.1 to 1 µM	–	–	–
CCCc1ccc2c(c1)[C@@]1(COC(N)=N1)c1cc(-c3cncnc3)ccc1O2 [Example 53, (4S)-2′-propyl-7′-(5-pyrimidinyl)spiro[1,3-oxazole-4,9′-xanthen]-2-amine]	–	–	–	–	IC50 ([1]; Table II): < 0.1 µM; IC50 [2, 3]: 0.1 to 1 µM
NC1=N[C@@]2(CO1)c1cc(-c3cccnc3)ccc1Oc1ccc(N3CCCC3=O)cc12 [compound 863]	< 0.1 µM	0.1 to 1 µM	–	–	–
CC(C)(C)COc1ccc2c(c1)[C@@]1(COC(N)=N1)c1ccccc1O2 [compound 665]	–	–	0.1 to 1 µM	1 to 5 µM	–
CC(C)(C)OC(=O)CCc1ccc2c(c1)[C@]1(COC(N)=N1)c1cc(-c3cncnc3)ccc1O2 [compound 826]	0.1 to 1 µM	1 to 5 µM	–	–	–
NC1=N[C@@]2(CO1)c1cc(C#CC3CC3)ccc1Oc1ncc(N3CCOCC3)cc12 [compound 607]	< 0.1 µM	< 0.1 µM	–	–	–
CC(C)(F)COc1cnc2c(c1)[C@]1(COC(N)=N1)c1cc(C#CC3CC3)ccc1O2 [compound 382]	–	–	–	–	IC50 [1, 4]: < 0.1 µM; IC50 [2, 5]: < 0.1 µM

SMILES	IC50 ([1]; Table IV, class symbols)	IC50 ([2]; Table IV, class symbols)	IC50 [1]	IC50 [2]	other results
CC(C)(C)CCc1ccc2c(c1)[C@@]1(COC(N)=N1)c1cc(-c3ccc(F)nc3)ccc1O2 [153a]	–	–	–	–	IC50 ([1]; Table III, IC50's in uM ranges): < 0.1 µM; IC50 ([2]; Table III, IC50's in uM ranges): 0.1 to 1 µM
Cc1ccc(-n2ccc3c(c2=O)[C@]2(COC(N)=N2)c2cc(-c4cccnc4)ccc2O3)cc1 [compound 504]	–	–	0.1 to 1 µM	–	IC50 ([2]; HEK cells): 0.1 to 1 µM
NC1=N[C@@]2(CO1)c1cc(C(=O)NC3CC3)ccc1Oc1ccc(-c3ccccc3)cc12 [compound 518]	–	–	< 0.1 µM	–	IC50 ([2]; HEK cells): < 0.1 µM
CC1(C)CC(c2ccc3c(c2)[C@]2(COC(N)=N2)c2cc(-c4cncnc4)ccc2O3)=CCO1 [compound 688]	–	–	< 0.1 µM	< 0.1 µM	–
Cc1c(OCC(C)(C)O)ccc2c1[C@]1(COC(N)=N1)c1cc(-c3cccnc3)ccc1O2 [compound 907]	< 0.1 µM	< 0.1 µM	–	–	–
CC(C)(O)COc1ccc2c(c1)[C@]1(COC(N)=N1)c1cc(C#CC3CC3)ccc1O2 [compound 937]	–	–	< 0.1 µM	0.1 to 1 µM	–
CC(C)(C)COc1ccc2c(c1)C1(COC(N)=N1)c1cc(NC(=O)c3ccc(Cl)cn3)ccc1O2 (stereo not shown) [compound 522]	–	–	< 0.1 µM	–	IC50 ([2]; HEK cells): < 0.1 µM
NC1=N[C@@]2(CO1)c1cc(-c3cccnc3)ccc1Oc1cnc(C(=O)CCCCO)cc12 [compound 612]	< 0.1 µM	0.1 to 1 µM	–	–	–
NC1=N[C@@]2(CO1)c1cc(-c3cccnc3)ccc1Oc1cnc(C3=CCOCC3)cc12 [compound 790]	–	–	< 0.1 µM	< 0.1 µM	–
NC1=N[C@@]2(CO1)c1cc(-c3cc(Cl)ccc3F)ccc1Oc1cnc(-c3ccncc3)cc12 [compound 330]	–	–	–	–	IC50 [1, 4]: < 0.1 µM; IC50 [2, 5]: < 0.1 µM
CC(C)(F)COc1cnc2c(c1)[C@]1(COC(N)=N1)c1cc(-c3ccc(F)nc3)ccc1O2 [compound 451]	–	–	< 0.1 µM	–	IC50 ([2]; HEK cells): < 0.1 µM
COC(C)(C)C#Cc1cc(F)c2c(c1)[C@]1(COC(N)=N1)c1cc(-c3ccc(F)nc3)ccc1O2 [compound 646]	< 0.1 µM	< 0.1 µM	–	–	–
NC1=N[C@@]2(CO1)c1cc(-c3cccnc3)ccc1Oc1cnc(Cl)cc12 [compound 676]	–	–	0.1 to 1 µM	1 to 5 µM	–
COc1ccc2c(c1)C1(COC(N)=N1)c1cc(-c3cccc(OC(F)(F)F)c3)ccc1O2 (stereo not shown) [Example 22, 2′-methoxy-7′-(3-(trifluoromethoxy)phenyl)spiro[1,3-oxazole-4,9′-xanthen]-2-amine]	–	–	–	–	IC50 ([1]; Table 1): 1 to 5 µM; IC50 ([2]; Table 1, Aβ40, 24 h incubation): 1 to 5 µM
COc1ccc2c(c1)[C@]1(COC(N)=N1)c1cc(-c3cncc4ccccc34)ccc1O2 [compound 634]	0.1 to 1 µM	1 to 5 µM	–	–	–
CC(C)(C)CCc1ccc2c(c1)[C@]1(COC(N)=N1)c1cc(-c3ccc(F)nc3)ccc1O2 [153b]	–	–	–	–	IC50 ([1]; Table III, IC50's in uM ranges): < 0.1 µM; IC50 ([2]; Table III, IC50's in uM ranges): 0.1 to 1 µM
NC1=N[C@]2(CO1)c1cc(Br)ccc1Oc1ccc(-c3cccnc3)cc12 [compound 960]	–	–	0.1 to 1 µM	1 to 5 µM	–
CC(C)(C)COc1ccc2c(c1)[C@]1(COC(N)=N1)c1cc(C3CCCC3)ccc1O2 [compound 701]	–	–	< 0.1 µM	1 to 5 µM	–
NC1=N[C@@]2(CO1)c1cc(-c3cccnc3)ccc1Oc1ccc(C3CC3)cc12 [compound 758]	–	–	< 0.1 µM	0.1 to 1 µM	–
Cc1ccncc1-c1ccc2c(c1)[C@@]1(COC(N)=N1)c1cc(OCC(C)(C)C)ccc1O2 [Example 86, (4S)-2′-(2,2-dimethylpropoxy)-7′-(4-methyl-3-pyridinyl)spiro[1,3-oxazole-4,9′-xanthen]-2-amine]	–	–	–	–	IC50 ([1]; Table II): < 0.1 µM; IC50 [2, 3]: 0.1 to 1 µM
CC(C)(C)COc1ccc2c(c1)[C@]1(COC(N)=N1)c1cc(C(C)(C)O)ccc1O2 [compound 827]	0.1 to 1 µM	1 to 5 µM	–	–	–
NC1=N[C@@]2(CO1)c1cc(-c3cccnc3F)ccc1Oc1ncccc12 [compound 570]	< 0.1 µM	0.1 to 1 µM	–	–	–
CC(C)(C)CCc1ccc2c(c1)[C@]1(COC(N)=N1)c1cc(Oc3ccccn3)ccc1O2 [compound 205]	–	–	–	–	IC50 ([1]; Table III, IC50's in uM ranges): < 0.1 µM; IC50 ([2]; Table III, IC50's in uM ranges): 0.1 to 1 µM
